Test [1] has as its target T1, Trichoderma reesei CEL5A endoglucanase II (Trichoderma reesei, UniProt P07982).
T1 construct: made in house
Briefly: CMC hydrolysis by CEL5A endoglucanase II with tannic acid. In kind it is biochemical. Conditions: 1 mM tannic acid, 50° C., 4 hours. The protocol:
(§1) The effect of tannic acid on Trichoderma reesei CEL7B endoglucanase I and Trichoderma reesei CEL5A endoglucanase II was also evaluated using carboxymethylcellulose (CMC) as substrate. The hydrolysis reactions were conducted in duplicate using the “mini-plate-scale” hydrolysis procedure described in Example 33, except that 1 mM tannic acid and 10 to 20 g of carboxymethylcellulose (CMC) and 1 to 20 mg of enzyme per liter 50 mM sodium acetate pH 5.0 were used at 50° C. for 4 hours. Soluble reducing sugars were analyzed by a p-hydroxybenzoic acid hydrazide (PHBAH) assay according to the method of Lever, 1972, Anal. Biochem. 47: 273-279, instead of by HPLC as described in Examples 30 and 33. Reactions without the addition of the enzymes served as controls to correct background absorption. Spectrophotometric measurements were performed using a SPECTRAMAX™ 340PC reader (Molecular Devices Corp., Sunnyvale, Calif., USA) with COSTAR® 96-well microplates (Cole-Parmer Instrument Co, Vernon Hills, Ill., USA).

The target of test [2] is T2, Trichoderma reesei CEL7B endoglucanase I (Trichoderma reesei, UniProt P07981).
T2 construct: made in house; host or cells: Aspergillus oryzae JaL250
T2 sequence (P07981 23-459): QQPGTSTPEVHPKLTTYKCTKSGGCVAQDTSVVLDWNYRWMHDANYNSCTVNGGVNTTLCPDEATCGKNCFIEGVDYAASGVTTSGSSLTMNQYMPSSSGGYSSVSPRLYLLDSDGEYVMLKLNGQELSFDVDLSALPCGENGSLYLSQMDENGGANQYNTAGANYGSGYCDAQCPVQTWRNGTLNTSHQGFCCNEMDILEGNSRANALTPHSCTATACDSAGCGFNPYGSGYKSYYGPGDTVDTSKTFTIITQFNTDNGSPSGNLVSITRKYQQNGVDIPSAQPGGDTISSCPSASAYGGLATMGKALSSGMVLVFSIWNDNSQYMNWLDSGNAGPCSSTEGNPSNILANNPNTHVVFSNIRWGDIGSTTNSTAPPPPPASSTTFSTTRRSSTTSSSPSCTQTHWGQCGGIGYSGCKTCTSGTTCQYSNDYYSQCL
Briefly: CMC hydrolysis by CEL7B endoglucanase I with tannic acid. It is filed as biochemical. The settings on record: 1 mM tannic acid, 50° C., 4 hours. The protocol:
as §1

Test [3] deals with T3, Aspergillus oryzae CEL3A beta-glucosidase (Aspergillus oryzae, UniProt Q2UUD6).
T3 construct: made in house
T3 sequence (Q2UUD6 20-861): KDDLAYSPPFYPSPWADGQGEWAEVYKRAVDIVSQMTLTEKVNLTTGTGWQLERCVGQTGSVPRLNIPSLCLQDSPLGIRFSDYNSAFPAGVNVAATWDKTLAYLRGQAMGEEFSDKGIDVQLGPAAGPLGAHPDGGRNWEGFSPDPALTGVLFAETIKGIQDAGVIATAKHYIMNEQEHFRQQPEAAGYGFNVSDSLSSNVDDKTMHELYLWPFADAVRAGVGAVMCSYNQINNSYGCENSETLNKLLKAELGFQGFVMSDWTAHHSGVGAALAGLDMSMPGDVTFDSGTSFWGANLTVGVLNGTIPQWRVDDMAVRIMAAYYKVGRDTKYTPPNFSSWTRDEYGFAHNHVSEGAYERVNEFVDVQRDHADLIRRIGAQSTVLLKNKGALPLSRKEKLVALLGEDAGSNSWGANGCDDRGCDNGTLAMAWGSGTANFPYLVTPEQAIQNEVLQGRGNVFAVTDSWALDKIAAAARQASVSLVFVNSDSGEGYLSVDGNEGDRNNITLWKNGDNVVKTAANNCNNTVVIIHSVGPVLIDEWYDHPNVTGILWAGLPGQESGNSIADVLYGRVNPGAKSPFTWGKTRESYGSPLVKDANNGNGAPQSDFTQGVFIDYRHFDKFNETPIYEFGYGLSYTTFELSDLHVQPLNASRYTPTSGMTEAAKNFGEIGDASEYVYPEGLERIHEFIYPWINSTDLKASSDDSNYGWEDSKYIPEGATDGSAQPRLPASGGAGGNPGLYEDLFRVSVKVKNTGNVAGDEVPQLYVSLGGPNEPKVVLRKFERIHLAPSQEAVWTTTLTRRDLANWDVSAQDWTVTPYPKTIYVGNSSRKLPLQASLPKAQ
Briefly: Cellobiose hydrolysis by CEL3A beta-glucosidase with tannic acid. It is filed as biochemical. The protocol:
The effect of tannic acid on Aspergillus oryzae CEL3A beta-glucosidase was also evaluated using a series of “mini-scale” hydrolysis reactions according to the procedure described in Example 30, except that 1 mM tannic acid (corresponding to 10 mM galloyl and 1 mM glucosyl constituents) and 2 g of cellobiose and 1 mg of beta-glucosidase per liter of 39 mM sodium acetate pH 5.0 were used. Reactions without the addition of the tannic acid served as controls. The reaction was monitored by HPLC as described in Example 30.
Tannic acid was also evaluated in the hydrolysis of cellobiose.

Test [4] deals with T4, Cellulolytic Enzyme Composition #1.
T4 construct: other: PASC hydrolysis; mean ± SD; 0.01 g enzyme; Dixon plot linear regression intercept (1/Rate); other: AVICEL; rate from hydrolysis difference (%) at 0 and 6 hours; rate from hydrolysis difference; fused on or other part: The A. oryzae beta-glucosidase is the mature chain secreted behind the Humicola insolens endoglucanase V signal peptide, which is cleaved off
Put plainly: PASC hydrolysis by Cellulolytic Enzyme Composition #1 with tannic acid. Conditions: mean ± SD, 0.01 g enzyme per liter, pH 5.0, 50° C., read-out: I50 (inhibitor concentration leading to 50% loss of hydrolysis rate). It is filed as biochemical, Trichoderma reesei. An excerpt: (§2) Initial hydrolysis rates were obtained from the first two hydrolysis time points (i.e., soluble sugar measurements) (with <20% hydrolysis extent in general, rate=(hydrolysis difference)/(time difference)). Double-reciprocal plots (1/(initial rate) vs 1/[cellulose] as function of tannic acid concentration) indicated a “mixed” type inhibition, but their complexity prevented extraction of simple inhibitor constants. Initial rate vs tannic acid concentration yielded an I50 (inhibitor concentration leading to 50% loss of hydrolysis rate) of 0.2±0.1 or 0.27±0.07 mM on PASC or AVICEL® hydrolysis, respectively

Test [5] concerns Cellulolytic Enzyme Composition #1. Put plainly: AVICEL hydrolysis by Cellulolytic Enzyme Composition #1 with added compounds. In kind it is biochemical, Trichoderma reesei. Conditions: AVICEL pre-incubated with 1 mM tannic acid 1 hour at 50° C., then washed.
Text: as §2
(§3) To examine where tannic acid exerted its inhibition, a series of hydrolysis reactions of AVICEL® by Cellulolytic Enzyme Composition #1 was performed in which AVICEL® and Cellulolytic Enzyme Composition #1 were used fresh or after pre-incubation with tannic acid. […] (with detectable precipitation seen), the pre-incubated Cellulolytic Enzyme Composition #1 was gel-filtered using BioSpin 6 desalting columns (Bio-Rad, Hercules, Calif., USA). […] Hydrolysis of untreated or buffer-only pre-incubated AVICEL® and Cellulolytic Enzyme Composition #1, with or without inhibitors, served as controls.

Test [6] relates to T4, Cellulolytic Enzyme Composition #1. Described as above. It is filed as biochemical, Trichoderma reesei.
Text: as §2, §3

Where [7] appears, read: 25 g AVICEL, 0.25 g enzyme per liter, 1 mM tannic acid, or 5 mM ellagic acid or 10 mM methyl gallate plus 1 mM glucose pentaacetate.
[8] abbreviates: AVICEL, rate from hydrolysis difference (%) at 0 and 6 hours.

The text below walks through data of patent publication US20090123979A1, “Methods of reducing the inhibitory effect of a tannin on the enzymatic hydrolysis of cellulosic material” (Novozymes, Inc., priority 2007, published 2009).

For orientation: Ki means a dissociation constant, usually derived from enzyme kinetics or from competition with a known ligand.

Each structure is given as a SMILES string.

T1 sequence (P07982 22-418): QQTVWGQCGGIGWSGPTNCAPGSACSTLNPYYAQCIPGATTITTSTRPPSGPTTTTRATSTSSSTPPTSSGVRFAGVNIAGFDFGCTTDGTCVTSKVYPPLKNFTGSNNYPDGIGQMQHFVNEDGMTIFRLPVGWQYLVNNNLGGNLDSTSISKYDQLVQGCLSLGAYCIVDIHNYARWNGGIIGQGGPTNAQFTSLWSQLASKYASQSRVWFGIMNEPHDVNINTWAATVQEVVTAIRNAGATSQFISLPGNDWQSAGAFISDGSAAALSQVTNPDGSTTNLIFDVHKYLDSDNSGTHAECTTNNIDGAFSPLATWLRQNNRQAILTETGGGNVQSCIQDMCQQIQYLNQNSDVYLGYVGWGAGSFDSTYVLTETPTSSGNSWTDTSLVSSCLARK

In the case of `O=C(OC[C@H]1O[C@@H](OC(=O)c2cc(O)c(O)c(OC(=O)c3cc(O)c(O)c(O)c3)c2)[C@H](OC(=O)c2cc(O)c(O)c(OC(=O)c3cc(O)c(O)c(O)c3)c2)[C@@H](OC(=O)c2cc(O)c(O)c(OC(=O)c3cc(O)c(O)c(O)c3)c2)[C@@H]1OC(=O)c1cc(O)c(O)c(OC(=O)c2cc(O)c(O)c(O)c2)c1)c1cc(O)c(O)c(OC(=O)c2cc(O)c(O)c(O)c2)c1` [tannic acid, Tannic acid], in test [1], the “effect on CMC hydrolysis by CEL5A endoglucanase II” value is listed as “significantly inhibited”. In addition, in test [2], the “effect on CMC hydrolysis by CEL7B endoglucanase I” value is “significantly inhibited”. Moreover, the “effect on cellobiose hydrolysis by CEL3A beta-glucosidase” value in test [3] (1 mM tannic acid, 2 g cellobiose and 1 mg beta-glucosidase per liter) was “significantly inhibited”. For the same compound, in test [3] (cellobiose hydrolysis), the “type of inhibition, CEL3A beta-glucosidase” value is recorded as “mixed”. The IC50 in test [3] (cellobiose hydrolysis, 0.001 g enzyme per liter, pH 5, 50° C., read-out: I50 for CEL3A beta-glucosidase) was roughly 800 µM; in test [4], 200 ± 100 µM; in test [6] (AVICEL hydrolysis, 0.01 g enzyme per liter, pH 5.0, 50° C., read-out: I50 (inhibitor concentration leading to 50% loss of hydrolysis rate)), 270 ± 70 µM. For the same compound, the “effect of pre-incubating AVICEL with inhibitor on hydrolysis” value in test [5] is listed as “did not affect the hydrolysis”. For the same compound, the “loss in initial rate of AVICEL hydrolysis” value in test [6] (setting [7]) is on record as roughly 90%. Moreover, in test [6] (setting [7]), the “loss in the extent of AVICEL hydrolysis at day 8” value is recorded as roughly 70%. For the same compound, in test [6] (AVICEL hydrolysis, Cellulolytic Enzyme Composition #1, OPC in flavanone-equivalent subunits, read-out: inhibition constant Ki (x-intercept of Dixon plot)), the Ki was roughly 130 µM. In addition, the “Dixon plot linear regression intercept (1/Rate)” value in test [6] (setting [8]) is 0.045±0.017. In test [6] (setting [8]), the “Dixon plot linear regression slope (1/Rate vs inhibitor concentration)” value was 0.356±0.033. Also, in test [6] (enzyme pre-incubated with 1 mM tannic acid 1 hour at 50° C., then gel-filtered), the “activity loss of pre-incubated Cellulolytic Enzyme Composition #1” value is given as “approximately 80%”. Further, the “concentration dependence of inhibition of AVICEL hydrolysis” value in test [6] (tannic acid 0.05 mM to 1 mM, OPC 1 mM to 10 mM, 23 g AVICEL and 0.25 g enzyme per liter) is “increasingly inhibitory”.
